In patent publication US7446177B2, “Uses of DC-SIGN and DC-SIGNR for inhibiting hepatitis C virus infection” (Progenics Pharmaceuticals, Inc., priority 2001, dated 2008):
Entries after “also recorded” stand apart in the source; their conditions may differ.

Key:
[1] = target: T1, HCV-E2 binding to DC-SIGN (Homo sapiens, UniProt Q9NNX6); settings: HeLa-DC-SIGN cells, 20 beads/cell; mannan 20 ug/ml, antibodies 0.1-10 ug/ml, EDTA or EGTA 5 mM
T1 construct: E2 from Accurate Chemicals, NY Item # 5444; E2 produced in CHO cells
Protocol: (§1) Carboxylate-modified FluoSpheres® NeutrAvidin™ labeled microspheres (505/515 nm, 1.0 um; Molecular Probes, Eugene, Oreg.) were coated with HCV E2 glycoprotein as described for ICAM-1 beads (Geijtenbeek et al, Blood, 94, 754-764 (1999)). Briefly, NeutrAvidin™-coated beads were sonicated, and washed in PBS/BSA (0.5%). Beads were incubated with biotinylated-Sp-conjugated AffiniPure F(ab′)2 goat anti-mouse IgG F(ab′)2 fragment specific (6 ug/ml in PBS/BSA (0.5%); Jackson Immunoresearch Laboratories, Inc., West Grove, Pa.) for 2 hours at 37° C. After washing, beads were incubated with mouse anti-E2 antibodies (6 ug/ml in PBS/BSA (0.5%)) at 4° C. overnight. The beads were washed and incubated with 250 ng/ml purified HCV E2 produced in CHO cells (Accurate Chemicals, NY) overnight at 4° C.
(§2) This was performed as described by Geijtenbeek et al, (Blood, 94, 754-764 (1999)), with modifications. Cells were removed from culture by cell dissociation solution (Sigma) for 5 minutes at 37° C. and washed three times in adhesion buffer (20 mM Tris-HCl [pH 8.0], 150 mM NaCl, 1 mM CaCl2, 2 mM MgCl2, and 0.5% BSA). Cells were resuspended at a final concentration of 5×10^6 cells/ml in adhesion buffer for 30 minutes at 4° C. to recharge Ca2+ levels. Cells ([…]) were preincubated with mannan (20 ug/ml; Sigma), antibodies (0.1-10 ug/ml), EDTA (5 mM) or EGTA (5 mM) for 10 minutes at room temperature. HCV-E2-coated fluorescent beads (20 beads/cell) were added, and the suspension incubated for 30 minutes at 37° C. Adhesion was determined by measuring the percentage of cells that bound fluorescent beads by flow cytometry using a FACSca (Becton Dickinson, Oxnard, Calif.).
(§3) To determine whether DC-SIGN and DC-SIGN-R bind to HCV-E2 glycoproetin, a flow cytometric adhesion assay (Geijtenbeek et al, Blood, 94, 754-764 (1999)) was adapted. HCV-E2 protein produced in CHO cells was captured on fluorescent beads using a panel of anti-E2 mAbs, which were incubated with DC-SIGN- and DC-SIGN-R-HeLa cells at a ratio of 20 beads per cell.

[2] = target: T2, HCV-E2 binding to DC-SIGN-R (Homo sapiens, UniProt Q9H2X3); settings: HeLa-DC-SIGN-R cells, 20 beads/cell; mannan 20 ug/ml, antibodies 0.1-10 ug/ml, EDTA or EGTA 5 mM
T2 construct: E2 from Accurate Chemicals, NY Item # 6749; E2 produced in CHO cells
Protocol: as §1, §2, §3

T2 sequence (Q9H2X3 whole entry): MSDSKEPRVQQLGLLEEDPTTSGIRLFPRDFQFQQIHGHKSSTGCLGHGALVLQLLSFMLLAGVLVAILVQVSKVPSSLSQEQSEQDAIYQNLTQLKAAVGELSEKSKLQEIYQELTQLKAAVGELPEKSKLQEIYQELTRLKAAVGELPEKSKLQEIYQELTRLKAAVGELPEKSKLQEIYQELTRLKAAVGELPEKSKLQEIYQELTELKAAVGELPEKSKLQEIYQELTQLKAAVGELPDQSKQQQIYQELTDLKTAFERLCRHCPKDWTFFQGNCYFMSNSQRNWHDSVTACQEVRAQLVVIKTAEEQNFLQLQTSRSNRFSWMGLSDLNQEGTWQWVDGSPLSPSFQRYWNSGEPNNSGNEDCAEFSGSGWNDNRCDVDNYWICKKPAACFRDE
T1 sequence (Q9NNX6 whole entry): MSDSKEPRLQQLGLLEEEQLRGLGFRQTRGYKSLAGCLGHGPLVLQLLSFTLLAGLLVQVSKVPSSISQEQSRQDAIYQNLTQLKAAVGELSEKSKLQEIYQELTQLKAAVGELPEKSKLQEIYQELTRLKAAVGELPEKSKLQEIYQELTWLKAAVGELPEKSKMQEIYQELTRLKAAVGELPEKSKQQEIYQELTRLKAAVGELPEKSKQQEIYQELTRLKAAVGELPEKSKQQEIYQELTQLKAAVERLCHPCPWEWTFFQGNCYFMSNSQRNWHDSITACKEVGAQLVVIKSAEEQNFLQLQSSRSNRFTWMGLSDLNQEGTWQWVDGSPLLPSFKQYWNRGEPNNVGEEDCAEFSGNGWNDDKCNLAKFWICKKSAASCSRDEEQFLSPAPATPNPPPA

| Compound | Inhibition of adhesion of HCV-E2-coated beads to DC-SIGN [1] | Inhibition of adhesion of HCV-E2-coated beads to DC-SIGN-R [2] |
| --- | --- | --- |
| O=C(O)CN(CCN(CC(=O)O)CC(=O)O)CC(=O)O [EDTA] | efficiently inhibited | efficiently inhibited |
| O=C(O)CN(CCOCCOCCN(CC(=O)O)CC(=O)O)CC(=O)O [EGTA] | efficiently inhibited | efficiently inhibited |
| mannan | inhibit; also recorded: efficiently inhibited; also recorded: blocked | inhibit; also recorded: efficiently inhibited; also recorded: blocked |
